Assay results from BindingDB's records for doi:10.7270/Q23B5XKP (Vanderbilt Screening Center for GPCRs, Ion Channels and …, 2009).

target: T1, Solute carrier family 12 member 5 (Homo sapiens, UniProt Q9H2X9); assay: KCC2 cotransport modulators, dose response, cell-based, assay 2 (AID 1723); settings: not given
T1 sequence (Q9H2X9 whole entry): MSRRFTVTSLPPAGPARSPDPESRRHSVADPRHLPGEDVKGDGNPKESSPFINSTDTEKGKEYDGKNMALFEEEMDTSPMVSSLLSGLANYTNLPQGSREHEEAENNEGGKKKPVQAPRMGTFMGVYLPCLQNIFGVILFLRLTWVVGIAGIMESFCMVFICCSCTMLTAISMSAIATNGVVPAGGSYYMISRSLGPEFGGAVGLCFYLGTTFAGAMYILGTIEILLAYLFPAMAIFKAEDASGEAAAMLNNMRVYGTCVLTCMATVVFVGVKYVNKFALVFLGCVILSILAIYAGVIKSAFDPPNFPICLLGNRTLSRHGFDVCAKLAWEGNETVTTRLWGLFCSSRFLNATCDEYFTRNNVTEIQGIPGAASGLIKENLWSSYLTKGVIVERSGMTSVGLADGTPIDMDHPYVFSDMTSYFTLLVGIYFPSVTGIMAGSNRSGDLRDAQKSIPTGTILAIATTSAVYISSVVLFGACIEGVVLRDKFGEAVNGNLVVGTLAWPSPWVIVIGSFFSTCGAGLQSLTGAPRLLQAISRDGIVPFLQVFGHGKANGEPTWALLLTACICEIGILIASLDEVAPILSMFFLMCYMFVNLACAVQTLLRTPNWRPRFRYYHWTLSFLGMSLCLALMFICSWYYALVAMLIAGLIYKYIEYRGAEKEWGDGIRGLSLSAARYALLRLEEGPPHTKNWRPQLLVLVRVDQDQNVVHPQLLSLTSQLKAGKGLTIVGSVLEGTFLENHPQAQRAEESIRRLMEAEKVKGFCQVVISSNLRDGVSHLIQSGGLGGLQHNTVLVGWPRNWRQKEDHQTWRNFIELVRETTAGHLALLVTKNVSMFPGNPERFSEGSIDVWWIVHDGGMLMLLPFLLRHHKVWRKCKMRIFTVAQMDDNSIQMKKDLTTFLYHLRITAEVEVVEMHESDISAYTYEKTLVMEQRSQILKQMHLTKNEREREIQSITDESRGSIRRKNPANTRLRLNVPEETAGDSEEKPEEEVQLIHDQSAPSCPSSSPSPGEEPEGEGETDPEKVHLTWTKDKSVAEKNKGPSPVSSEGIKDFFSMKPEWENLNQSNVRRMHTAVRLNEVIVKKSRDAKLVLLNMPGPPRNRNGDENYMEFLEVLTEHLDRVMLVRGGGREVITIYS

| SMILES | EC50 |
| --- | --- |
| Cc1[nH]n2c(=O)cc(C(C)C)nc2c1-c1ccccc1 | 21 µM |
| O=[N+]([O-])c1ccc(-c2cn(-c3ccccc3F)c(=S)[nH]2)cc1 | 0.616 µM |
| S=c1nc(-c2ccc3c(c2)CCO3)cc[nH]1 | 6.1 µM |
| O=C1OC(c2ccc(O)cc2)(c2ccc(O)cc2)c2ccccc21 | 11.8 µM |
| COc1ccc(Cn2c(=S)[nH]c3ccccc32)cc1 [1-(4-methoxybenzyl)-1H-benzimidazole-2-thiol] | 0.401 µM |
| S=C(NCCc1ccccc1)NN=Cc1cccc(Cl)c1Cl [1-[(2,3-dichlorobenzylidene)amino]-3-phenethyl-thiourea] | 10.1 µM |
| Fc1cccc(F)c1C=NNC(=S)Nc1cccnc1 [1-[(2,6-difluorobenzylidene)amino]-3-(3-pyridyl)thiourea] | 6.66 µM |
| NC(=S)NN=C1C(=O)N(Cc2ccc(F)cc2)c2ccccc21 [1-[(Z)-[1-[(4-fluorophenyl)methyl]-2-oxidanylidene-indol-3-ylidene]amino]thiourea] | 7.58 µM |
| N=C1SCC(=O)N1c1ncc(Cc2cccc(Cl)c2)s1 [2-azanylidene-3-[5-[(3-chlorophenyl)methyl]-1,3-thiazol-2-yl]-1,3-thiazolidin-4-one] | 2.86 µM |
| O=C(NC(=S)Nc1nc(-c2cccc([N+](=O)[O-])c2)cs1)c1ccccc1Cl [2-chloranyl-N-[[4-(3-nitrophenyl)-1,3-thiazol-2-yl]carbamothioyl]benzamide] | 139 µM |
| CCOc1ccc2nc(Sc3cc(O)n(-c4cccc(OC)c4)c3O)sc2c1 [3-(6-Ethoxy-benzothiazol-2-ylsulfanyl)-1-(3-methoxy-phenyl)-pyrrolidine-2,5-dione] | 7.89 µM |
| CCOc1cccc(C(=O)NC(=S)Nc2cccc(C)c2)c1 [3-ethoxy-N-(m-tolylthiocarbamoyl)benzamide] | 1.58 µM |
| COC(=O)[C@@H](NC(=O)O[C@@H]1C(=O)c2ccc(OC)cc2O[C@H]1c1cccc(C(F)(F)F)c1)C(C)C [(2S)-2-[[(2S,3S)-4-keto-7-methoxy-2-[3-(trifluoromethyl)phenyl]chroman-3-yl]oxycarbonylamino]-3-methyl-butyric acid methyl ester] | 0.515 µM |
| Oc1ccccc1CN=Nc1nc2ccccc2o1 [(6E)-6-[(1,3-benzoxazol-2-ylhydrazo)methylidene]-1-cyclohexa-2,4-dienone] | 31.1 µM |

Now from value to molecule:

| EC50 | SMILES |
| --- | --- |
| 11.2 µM | Cc1cccc(N2CCN(C(=O)CCCn3c(=S)[nH]c4cc5c(cc4c3=O)OCO5)CC2)c1C [MLS000095366] |
| 15.6 µM | CC(C)c1ccc(OCC(=O)NNC(=O)c2cnccn2)cc1 [MLS000332605] |
| 62.4 µM | O=C(C=Cc1ccccc1)CC(=O)c1ccccc1O [MLS000627068] |
| 726 µM | CC(=NNC(=O)c1ccc2c(c1)OCO2)c1ccc(Br)s1 [MLS000666595] |
| 7.99 µM | COc1cc(NC(=S)NC(=O)c2ccco2)ccc1NC(=O)C(C)C [MLS000672338] |
| 1.19 µM | CC(=O)c1cccc(NC(=S)NC(=O)c2ccc(C)cc2)c1 [MLS000687464] |
| 13.3 µM | O=c1c2ccccc2[nH]c(=S)n1CCN1CCC(=C(c2ccc(F)cc2)c2ccc(F)cc2)CC1 [SMR000058550] |

same assay, conditions: inactive by the depositor's call

| SMILES | EC50 |
| --- | --- |
| Cc1ccc(-c2n[nH]c(=S)n2NC=CCc2ccccc2[N+](=O)[O-])cc1 | 0.807 µM |
| COc1ccccc1N1CCN(C(=S)NC(=O)/C=C/c2ccccc2)CC1 [(E)-N-[4-(2-Methoxy-phenyl)-piperazine-1-carbothioyl]-3-phenyl-acrylamide] | 1.34 µM |
| O=C(NC(=S)Nc1cccc2cccnc12)c1cccs1 [MLS000688132] | 0.124 µM |
